# Bridges are numbered along the chain shown (N, C = ends). Where no end group is shown, it is not given here.
# Columns and labels:
# A549 cells [1] = experiment: EMT induced by TGF-β1 in A549 cells (morphology, quantitative RT-PCR); format: cell-based; details: final concentration 1 μM, A549 cells
# Description: Using a 6-well dish, the A549 cells were cultured at 1×10^5 cells/well, and the culture medium was replaced with DMEM culture medium free from FBS the next day. After 24 hours of culture, the cells were used in the following experiment.
# An ANP group (ANP solution was added (final concentration: 1 μM)) and a control group (the same amount of physiological saline was added) were prepared, and after 2 hours from the addition, TGF-β1 was added so that the final concentration would be 0.125, 0.25, 0.5, 1.0, and 2.0 ng/mL. After 24 hours had passed, the morphological change in the cells was observed under a microscope and photographed (FIG. 3).
# Then, total RNA was collected using TRIZOL total RNA isolation reagent (made by Invitrogen), cDNA was synthesized using reverse transcriptase, and the mRNA levels of E-cadherin, N-cadherin, VEGF-A, PDGF-B, TNF-α, and IL-6 were measured by quantitative RT-PCR. It is known that in EMT, the expression of E-cadherin decreases while the expression of N-cadherin increases. The expression ratio of N-cadherin/E-cadherin is considered to be useful as an indicator of the degree of EMT.
# [2] = biological target: T1, natriuretic peptide receptor GC-B (Homo sapiens, UniProt P20594); details: Furuya et al. 1992; cited from earlier work
# T1 sequence (P20594 23-1047): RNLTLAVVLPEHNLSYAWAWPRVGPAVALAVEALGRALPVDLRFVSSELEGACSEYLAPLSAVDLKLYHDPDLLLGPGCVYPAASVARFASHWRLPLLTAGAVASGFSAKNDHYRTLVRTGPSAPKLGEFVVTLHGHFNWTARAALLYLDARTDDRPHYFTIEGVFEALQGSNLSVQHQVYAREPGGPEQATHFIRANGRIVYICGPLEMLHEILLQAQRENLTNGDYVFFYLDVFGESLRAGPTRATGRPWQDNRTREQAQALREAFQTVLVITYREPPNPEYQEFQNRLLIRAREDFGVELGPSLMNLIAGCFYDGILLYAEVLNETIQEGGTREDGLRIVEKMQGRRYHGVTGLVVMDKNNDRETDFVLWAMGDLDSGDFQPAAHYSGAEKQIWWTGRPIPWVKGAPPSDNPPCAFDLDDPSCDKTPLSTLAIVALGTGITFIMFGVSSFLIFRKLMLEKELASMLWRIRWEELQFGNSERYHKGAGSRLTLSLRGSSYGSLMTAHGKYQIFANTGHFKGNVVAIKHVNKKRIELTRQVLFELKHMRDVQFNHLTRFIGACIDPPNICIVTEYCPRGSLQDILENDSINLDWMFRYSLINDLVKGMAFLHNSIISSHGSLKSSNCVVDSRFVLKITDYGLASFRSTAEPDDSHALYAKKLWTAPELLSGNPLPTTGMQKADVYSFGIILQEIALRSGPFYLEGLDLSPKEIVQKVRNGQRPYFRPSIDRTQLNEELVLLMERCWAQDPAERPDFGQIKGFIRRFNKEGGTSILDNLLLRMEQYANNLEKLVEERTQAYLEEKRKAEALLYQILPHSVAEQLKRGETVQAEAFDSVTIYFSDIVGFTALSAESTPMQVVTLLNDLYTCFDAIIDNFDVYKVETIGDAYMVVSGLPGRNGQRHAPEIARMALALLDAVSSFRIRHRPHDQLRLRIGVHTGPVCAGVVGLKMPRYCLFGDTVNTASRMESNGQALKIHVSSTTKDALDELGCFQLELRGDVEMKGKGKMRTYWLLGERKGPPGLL
# A549 cells [3] = experiment: Intracellular cGMP level in A549 cells on natriuretic peptide stimulus; format: cell-based; details: 1×10^−11 M to 1×10^−6 M, 10 minutes
# Description: The A549 cells were cultured in a 24-well dish at 4×10^4 cells/well, and the culture medium was replaced with DMEM culture medium free from FCS the next day. To the culture medium, solutions of hANP, hBNP, and hCNP (final concentration: ten-fold serial dilution from 1×10^−11 M to 1×10^−6 M, the same amount of physiological saline was used as a control) were separately added. After 10 minutes passed, 400 μL of cooled 70% ethanol (containing 0.1 N hydrochloric acid) was added, and ultrasonication was performed for a short time. The treated solution was lyophilized, and the cGMP level was measured using Cyclic GMP Assay kit (made by Yamasa Corp.).
# mouse melanoma B16-F10 = experiment: Mouse tail vein injection metastasis test, mouse melanoma B16-F10; format: in vivo, mice; details: 2.5 μg/kg/min by subcutaneous osmotic pump, 2 weeks
# Description: 6-week-old male […] mice were used (purchased from Japan SLC, Inc.). Mouse melanoma B16-F10 was purchased from ATCC, and cultured in DMEM (Life Technologies Corp.) containing 10% FCS under 5% CO2 at 37° C. The cells in a subconfluent state were treated with EDTA-trypsin, centrifuged, and then suspended in serum free DMEM so as to be 5×10^6 cells/mL. The melanoma cell suspension (100 μL/mouse, 5×10^5 cells) was injected to the tail vein of the mice. The osmotic pumps used were MODEL2002 (for 14-day administration) made by ALZET (Cupertino, Calif,.).
# Mice into which an osmotic pump containing 0.9% physiological saline was subcutaneously implanted in the back were assigned to the control group. Similarly, an osmotic pump containing hANP prepared for administration at 0.5 μg/kg/min was subcutaneously implanted into each mouse in the ANP group, an osmotic pump containing mouse BNP prepared for administration at 0.5 μg/kg/min was subcutaneously implanted into each mouse in the BNP group, and an osmotic pump containing hCNP-22 prepared for administration at 2.5 μg/kg/min was subcutaneously implanted into each mouse in the CNP group. To the mice in the sildenafil group, sildenafil citrate at a dosage of 20 mg/kg was intraperitoneally administered once daily. […]
substance,measurement,setting,value
"LKL-ANP: a mutant in which the amino acids at positions 10 to 12 of hANP are replaced with LKL (SLRRSSCFGLKLDRIGAQSGLGCNSFRY; ends and bridges not checked; cysteine pairing not given here; UniProt P01160 124-151, looked up, variant G10L R11K M12L)",ratio of suppression of EMT induced by TGF-β in terms of E-cad/Ncad,A549 cells [1],52.9%
hCNP6-22: peptide consisting of amino acids from position 6 to position 22 of SEQ ID NO: 7 (ring structure only) (CFGLKLDRIGSMSGLGC; disulfide 1-17 (inferred); listed as Homo sapiens),GC-B agonist activity compared with hCNP-22,[2],comparable to that of hCNP-22
"hCNP: 22-amino acid CNP-22 of human origin, GLSKGCFGLK LDRIGSMSGL GC (SEQ ID NO: 7), GC-B agonist (GLSKGCFGLKLDRIGSMSGLGC; listed as Homo sapiens)",intracellular cGMP level,A549 cells [3],did not show such increase
same,lung metastasis of melanoma (number of nodules),mouse melanoma B16-F10,significantly suppressed
nesiritide [hBNP],intracellular cGMP level,A549 cells [3],increased the intracellular cGMP level of the A549 cells in a concentration-dependent manner
